# Measurements: patent publication US4560509A, “Antibiotic A39079 factor S-1” (Eli Lilly and Company, priority 1983, dated 1985)
# Key:
# [1] = test system: Enterobacter aerogenes C32; experiment: standard agar-dilution MIC assay; format: cell-based; details: Klebsiella aerogenes; agar dilution; Enterobacter aerogenes C32; read-out: MIC
# Text: (§1) Table V summarizes the minimal inhibitory concentrations (MIC) at which factor S-1 inhibits certain organisms as determined by standard agar-dilution assays. In Table V, the activity of factor S-1 is compared with that of rifampin.
# [2] = test system: Escherichia coli EC14; experiment: standard agar-dilution MIC assay; format: cell-based
# Text: as §1
# [3] = test system: Escherichia coli TEM; experiment: standard agar-dilution MIC assay; format: cell-based
# Text: as §1
# [4] = test system: Haemophilus influenzae 76; experiment: standard agar-dilution MIC assay; format: cell-based
# Text: as §1
# [5] = test system: Proteus morganii PR15; experiment: standard agar-dilution MIC assay; format: cell-based; details: Morganella morganii; agar dilution; Proteus morganii PR15; read-out: MIC
# Text: as §1
# [6] = test system: Pseudomonas aeruginosa X239; experiment: standard agar-dilution MIC assay; format: cell-based; details: agar dilution; Pseudomonas aeruginosa X239; read-out: MIC
# Text: as §1
# [7] = test system: Staphylococcus aureus NRRL B313; experiment: standard agar-dilution MIC assay; format: cell-based; details: NRRLB313; agar dilution; Staphylococcus aureus NRRL B313; read-out: MIC
# Text: as §1
# [8] = test system: Staphylococcus aureus S13E; experiment: standard agar-dilution MIC assay; format: cell-based
# Text: as §1
# [9] = test system: Staphylococcus aureus V41; experiment: standard agar-dilution MIC assay; format: cell-based; details: agar dilution; Staphylococcus aureus V41; read-out: MIC
# Text: as §1
# [10] = test system: Staphylococcus epidermidis 222; experiment: standard agar-dilution MIC assay; format: cell-based; details: agar dilution; Staphylococcus epidermidis 222; read-out: MIC
# Text: as §1
# [11] = test system: Streptococcus faecium ATCC 9790; experiment: standard agar-dilution MIC assay; format: cell-based; details: Enterococcus faecium, ATCC9790; agar dilution; Streptococcus faecium ATCC 9790; read-out: MIC
# Text: as §1
# [12] = test system: Streptococcus sp. group D 9960; experiment: standard agar-dilution MIC assay; format: cell-based; details: agar dilution; Streptococcus sp. group D 9960; read-out: MIC
# Text: as §1
# [13] = test system: pathogenic bacteria; experiment: growth inhibition of pathogenic bacteria (general statement); format: cell-based
# Text: as §1
# [14] = test system: rumen flora; experiment: ruminant feed-utilization activity (VFA and methane production in treated vs control flasks); format: cell-based
# Text: Animals having a developed rumen function utilize feed by first degrading the carbohydrate (the main nutritive portion) to pyruvate. The pyruvate is further metabolized to volatile fatty acid (VFA) derivatives, which include acetate, propionate and butyrate. It is known that the efficiency of carbohydrate utilization in ruminants is increased by treatments which stimulate the animals' rumen flora to produce propionate compounds rather than acetate or butyrate compounds. Feed-utilization efficiency can also be improved by inhibiting methane production. When methane gas is produced in the rumen, it is generally lost through eructation. This energy loss can be minimized by inhibiting methane formation.
# [15] = test system: bacteria normally present in the monogastric digestive system; experiment: glucose sparing / feed-utilization efficiency in monogastric animals; details: statement in words
# Text: Yet another important property of factor S-1 is its ability to improve feed-utilization efficiency in monogastric animals. Commercially important monograstric animals include chickens and pigs. In addition, young ruminants, especially those still unweaned, function as monogastric animals. In the monogastric animal, bacteria and the host compete for nutrients in the digestive process. Agents which cause the bacteria to use less efficient substrates, leaving more efficient substrates such as glucose for the host animal, increase the feed-utilization efficiency of the host animal.
# [16] = titration; format: physicochemical; details: 66% aqueous dimethylformamide
# [17] = solubility; format: physicochemical
# [18] = stability in aqueous methanol solutions; format: physicochemical
# Protocol: (7) Stability: Stability studies on factor S-1 in aqueous methanol solutions were run at pH levels of 2,5,7 and 9 and at temperatures of 4° C., 25° C., and 37° C.
# [19] = test system: Micrococcus luteus; experiment: antibiotic activity of column fractions; format: cell-based
# Protocol: Whole broth (100 L), prepared in a manner similar to that of Example 1, Section B, was filtered using a filter aid (Hyflo Supercel, Johns-ManvilleCorp.). The filtered broth (86 L) is adjusted to pH 2 with 5N hydrochloric acid and then is extracted twice with ethyl acetate (1/2 volumes). The ethyl acetate extracts are concentrated under vacuum to give an oily residue (49 g). This residue is dissolved in methanol and placed on a 10-L Diaion HP-20 column (Mitsubishi Industries). The column is washed with water (500 ml) and eluted with acetonitrile:water (30 L of 3:7 and 50 L of 3:2) and acetonitrile (20 L). Elution is carried out at a rate of 100 ml/min., collecting 4-liter fractions. Fractions are tested for antibiotic activity against Micrococcus luteus, Escherichia coli, and Neurospora crassa.
# Factor S-1 is further purified in 200-mg portions by dissolving it in methanol and chromatographing the solution on a 1"×30-cm column packed with Zorbax ODS (12μ) (E. I. duPont). The column is eluted at 10 ml/min with 45% acetonitrile in 0.01% trifluoroacetic acid (400 ml) and then with a 400-ml gradient of from 45%-100% acetonitrile in 0.01% trifluoroacetic acid. Fractions are checked by UV absorption at 264 nm and by disc bioassay against M. luteus. Fractions containing only factor S-1 are combined, concentrated and lyophilized to dryness. […]
structure (smiles),measurement,setting,value
CC(=O)OC1C(C)C(O)C=COC2(C)Oc3c(C)c(O)c4c(c3C2=O)C(=O)C(C)=C(NC(=O)C=CC=CC(C)C(O)C(C)C(O)C1C)C4=O (centres unmarked) [Factor S-1],MIC,[1],16 µg/mL
same,MIC,[2],16 µg/mL
same,MIC,[3],> 128 µg/mL
same,MIC,[4],0.125 µg/mL
same,MIC,[5],8 µg/mL
same,MIC,[6],16 µg/mL
same,MIC,[7],0.015 µg/mL
same,MIC,[8],0.015 µg/mL
same,MIC,[9],0.015 µg/mL
same,MIC,[10],< 0.008 µg/mL
same,MIC,[11],1 µg/mL
same,MIC,[12],1 µg/mL
same,inhibition of growth of pathogenic bacteria,[13],"inhibits the growth of a broad spectrum of pathogenic bacteria, especially gram-positive bacteria"
same,"Ratio of Treated to Control, Molar Percent, acetic",[14]; dose 0.5 ppm,1.04
same,"Ratio of Treated to Control, Molar Percent, butyric",[14]; dose 0.5 ppm,0.57
same,"Ratio of Treated to Control, Molar Percent, propionic",[14]; dose 0.5 ppm,1.29
same,"Ratio of Treated to Control, mMoles/Day, Total VFA",[14]; dose 0.5 ppm,1.18
same,"Ratio of Treated to Control, mMoles/Day, acetic",[14]; dose 0.5 ppm,1.22
same,"Ratio of Treated to Control, mMoles/Day, butyric",[14]; dose 0.5 ppm,0.67
same,"Ratio of Treated to Control, mMoles/Day, methane",[14]; dose 0.5 ppm,1.03
same,"Ratio of Treated to Control, mMoles/Day, propionic",[14]; dose 0.5 ppm,1.52
same,"Ratio of Treated to Control, Molar Percent, acetic",[14]; dose 1 ppm,1.05
same,"Ratio of Treated to Control, Molar Percent, butyric",[14]; dose 1 ppm,0.48
same,"Ratio of Treated to Control, Molar Percent, propionic",[14]; dose 1 ppm,1.49
same,"Ratio of Treated to Control, mMoles/Day, Total VFA",[14]; dose 1 ppm,1.22
same,"Ratio of Treated to Control, mMoles/Day, acetic",[14]; dose 1 ppm,1.27
same,"Ratio of Treated to Control, mMoles/Day, butyric",[14]; dose 1 ppm,0.59
same,"Ratio of Treated to Control, mMoles/Day, methane",[14]; dose 1 ppm,0.98
same,"Ratio of Treated to Control, mMoles/Day, propionic",[14]; dose 1 ppm,1.75
same,"Ratio of Treated to Control, Molar Percent, acetic",[14]; dose 2 ppm,1.08
same,"Ratio of Treated to Control, Molar Percent, butyric",[14]; dose 2 ppm,0.43
same,"Ratio of Treated to Control, Molar Percent, propionic",[14]; dose 2 ppm,1.55
same,"Ratio of Treated to Control, mMoles/Day, Total VFA",[14]; dose 2 ppm,1.06
same,"Ratio of Treated to Control, mMoles/Day, acetic",[14]; dose 2 ppm,1.15
same,"Ratio of Treated to Control, mMoles/Day, butyric",[14]; dose 2 ppm,0.46
same,"Ratio of Treated to Control, mMoles/Day, methane",[14]; dose 2 ppm,1.09
same,"Ratio of Treated to Control, mMoles/Day, propionic",[14]; dose 2 ppm,1.63
same,"Ratio of Treated to Control, Molar Percent, acetic",[14]; dose 5 ppm,1.07
same,"Ratio of Treated to Control, Molar Percent, butyric",[14]; dose 5 ppm,0.62
same,"Ratio of Treated to Control, Molar Percent, propionic",[14]; dose 5 ppm,1.30
same,"Ratio of Treated to Control, mMoles/Day, Total VFA",[14]; dose 5 ppm,1.07
same,"Ratio of Treated to Control, mMoles/Day, acetic",[14]; dose 5 ppm,1.16
same,"Ratio of Treated to Control, mMoles/Day, butyric",[14]; dose 5 ppm,0.66
same,"Ratio of Treated to Control, mMoles/Day, methane",[14]; dose 5 ppm,0.50
same,"Ratio of Treated to Control, mMoles/Day, propionic",[14]; dose 5 ppm,1.39
same,feed-utilization efficiency in ruminants,[14]; statement in words,improve feed-utilization efficiency in ruminants
same,effect on consumption of glucose by bacteria (glucose sparing),[15],prevents the consumption of glucose by bacteria normally present in the monogastric digestive system
same,pKa,[16],8
same,solubility,"[17]; solvents such as methanol, acetonitrile and acetone",soluble
same,solubility,[17]; water,only slightly soluble
same,stability versus temperature,"[18]; 4° C., 25° C. and 37° C.","most stable at 4° C., less stable at 25° C., and least stable at 37 °C"
same,stability versus pH,"[18]; pH 2, 5, 7 and 9","more stable in slightly acidic, neutral and basic solutions than in strongly acidic solutions (pH=2)"
same,activity against M. luteus,[19],active
